Calls of active or inactive are those of the source. No cut-off for these calls is given here.
Columns and labels:
[1] = Permeability of compound at pH 5.5 by PAMPA; format: ADME; details: read-out: permeability
Blood [2] = test: Induction of MX1 secretion in mouse whole blood; format: functional, tissue-based
Mus musculus = test: Induction of IFN-alpha production in Balb/c mouse serum at […], iv measured after 6 hrs by ELISA analysis; format: functional, organism-based
Blood [3] = test: Induction of IP-10 secretion in human whole blood; format: functional, tissue-based
[4] = Inhibition of GPCR (unknown origin); set-up: species or system Homo sapiens
[5] = Permeability of compound across apical to basolateral side in human Caco-2 cells; format: ADME, cell-based; details: read-out: permeability
[6] = molecular target: Voltage-gated inwardly rectifying potassium channel KCNH2 (Homo sapiens, UniProt Q12809); test: Inhibition of hERG by patch clamp assay; format: toxicity
Blood [7] = test: Induction of IP-10 secretion in mouse whole blood; format: functional, tissue-based
[8] = Clearance in Balb/c mouse at 0.5 mg/kg, iv measured after 2 hrs by LC-MS analysis; format: ADME, organism-based; details: in vivo
[9] = molecular target: Toll-like receptor 2 (Homo sapiens) (UniProt O60603); test: Agonist activity at human TLR2
Blood [10] = test: Induction of MX1 secretion in human whole blood; format: functional, tissue-based
in vitro = details: PHA-activated T cells
[11] = molecular target: T1, Toll-like receptor 8 (Homo sapiens) (UniProt Q9NR97); test: Agonist activity at human TLR8
T1 sequence (whole entry): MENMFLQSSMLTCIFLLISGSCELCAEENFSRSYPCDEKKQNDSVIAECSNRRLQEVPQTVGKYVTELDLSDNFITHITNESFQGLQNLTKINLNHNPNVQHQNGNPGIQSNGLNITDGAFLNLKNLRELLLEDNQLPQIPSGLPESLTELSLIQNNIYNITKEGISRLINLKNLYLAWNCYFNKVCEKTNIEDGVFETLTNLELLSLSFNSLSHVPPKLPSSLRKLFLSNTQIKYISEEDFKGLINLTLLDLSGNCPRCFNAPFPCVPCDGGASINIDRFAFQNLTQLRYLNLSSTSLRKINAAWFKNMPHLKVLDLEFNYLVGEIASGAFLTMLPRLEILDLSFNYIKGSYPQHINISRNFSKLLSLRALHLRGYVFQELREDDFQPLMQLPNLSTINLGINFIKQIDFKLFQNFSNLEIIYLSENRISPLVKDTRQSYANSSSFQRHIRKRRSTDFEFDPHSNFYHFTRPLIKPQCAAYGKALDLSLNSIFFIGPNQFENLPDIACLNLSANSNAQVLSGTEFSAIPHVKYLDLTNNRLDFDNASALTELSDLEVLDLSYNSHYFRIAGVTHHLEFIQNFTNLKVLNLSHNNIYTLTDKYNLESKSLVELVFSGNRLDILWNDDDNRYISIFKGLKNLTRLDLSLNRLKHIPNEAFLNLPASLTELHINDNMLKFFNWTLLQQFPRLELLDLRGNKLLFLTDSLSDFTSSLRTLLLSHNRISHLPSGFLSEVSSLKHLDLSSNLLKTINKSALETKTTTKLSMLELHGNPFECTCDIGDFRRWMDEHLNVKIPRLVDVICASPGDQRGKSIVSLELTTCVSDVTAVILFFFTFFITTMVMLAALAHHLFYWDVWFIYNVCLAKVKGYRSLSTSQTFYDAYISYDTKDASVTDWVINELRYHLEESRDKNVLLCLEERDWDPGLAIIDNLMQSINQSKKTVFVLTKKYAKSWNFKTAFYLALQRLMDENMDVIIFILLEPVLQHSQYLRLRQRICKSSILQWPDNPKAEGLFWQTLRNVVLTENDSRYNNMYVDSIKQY

[12] = molecular target: Toll-like receptor 3 (Homo sapiens) (UniProt O15455); test: Agonist activity at human TLR3
CT26 = test: Antitumor activity against mouse CT26 cells implanted in Balb/cAnNHsd mouse administered intraperitoneally once a week for 4 weeks in the presence of aPD1 antibody; format: functional; details: dose lower […], dose upper […], route ip
[13] = Metabolic stability in cynomolgus monkey liver microsomes assessed as half-life; format: ADME, Macaca fascicularis, Microsome
Blood [14] = test: Induction of IFIT3 secretion in human whole blood; format: functional, tissue-based
Jurkat = test: Cytotoxicity against human Jurkat cells; format: toxicity, cell-based
Blood [15] = test: Induction of TNF-alpha secretion in mouse whole blood; format: functional, tissue-based
[16] = AUClast in Balb/c mouse at 0.5 mg/kg, iv measured after 2 hrs by LC-MS analysis; format: ADME, organism-based; set-up: dose 0.5 mg/kg, time 2 hrs, route iv; details: in vivo
[17] = molecular target: Toll-like receptor 4 (Homo sapiens) (UniProt O00206); test: Agonist activity at human TLR4
Blood [18] = test: Induction of IFIT3 secretion in mouse whole blood; format: functional, tissue-based

Toll-like receptor 3 (Homo sapiens), sequence (O15455 whole entry): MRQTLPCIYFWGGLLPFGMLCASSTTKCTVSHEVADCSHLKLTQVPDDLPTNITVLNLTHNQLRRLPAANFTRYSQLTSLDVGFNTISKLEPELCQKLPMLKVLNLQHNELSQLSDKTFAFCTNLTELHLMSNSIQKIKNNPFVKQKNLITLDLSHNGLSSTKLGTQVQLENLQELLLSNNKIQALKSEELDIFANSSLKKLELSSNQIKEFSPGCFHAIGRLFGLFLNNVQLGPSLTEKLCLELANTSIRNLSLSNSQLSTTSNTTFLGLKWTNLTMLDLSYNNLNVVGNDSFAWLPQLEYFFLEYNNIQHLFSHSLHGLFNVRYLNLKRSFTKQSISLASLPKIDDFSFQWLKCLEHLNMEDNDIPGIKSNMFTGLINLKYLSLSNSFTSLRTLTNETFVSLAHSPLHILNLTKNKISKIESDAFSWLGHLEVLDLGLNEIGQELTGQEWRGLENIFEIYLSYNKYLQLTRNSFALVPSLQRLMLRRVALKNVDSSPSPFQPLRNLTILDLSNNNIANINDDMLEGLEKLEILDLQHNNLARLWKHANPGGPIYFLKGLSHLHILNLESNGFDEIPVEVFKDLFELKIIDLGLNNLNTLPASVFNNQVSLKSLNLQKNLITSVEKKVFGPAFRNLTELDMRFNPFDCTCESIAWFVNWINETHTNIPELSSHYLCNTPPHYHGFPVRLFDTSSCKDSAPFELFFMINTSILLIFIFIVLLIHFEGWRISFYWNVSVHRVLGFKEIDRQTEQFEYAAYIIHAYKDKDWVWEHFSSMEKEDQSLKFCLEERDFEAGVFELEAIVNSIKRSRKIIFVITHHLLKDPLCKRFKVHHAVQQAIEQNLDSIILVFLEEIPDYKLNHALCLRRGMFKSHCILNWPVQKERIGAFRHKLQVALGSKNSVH
Toll-like receptor 2 (Homo sapiens), sequence (O60603 whole entry): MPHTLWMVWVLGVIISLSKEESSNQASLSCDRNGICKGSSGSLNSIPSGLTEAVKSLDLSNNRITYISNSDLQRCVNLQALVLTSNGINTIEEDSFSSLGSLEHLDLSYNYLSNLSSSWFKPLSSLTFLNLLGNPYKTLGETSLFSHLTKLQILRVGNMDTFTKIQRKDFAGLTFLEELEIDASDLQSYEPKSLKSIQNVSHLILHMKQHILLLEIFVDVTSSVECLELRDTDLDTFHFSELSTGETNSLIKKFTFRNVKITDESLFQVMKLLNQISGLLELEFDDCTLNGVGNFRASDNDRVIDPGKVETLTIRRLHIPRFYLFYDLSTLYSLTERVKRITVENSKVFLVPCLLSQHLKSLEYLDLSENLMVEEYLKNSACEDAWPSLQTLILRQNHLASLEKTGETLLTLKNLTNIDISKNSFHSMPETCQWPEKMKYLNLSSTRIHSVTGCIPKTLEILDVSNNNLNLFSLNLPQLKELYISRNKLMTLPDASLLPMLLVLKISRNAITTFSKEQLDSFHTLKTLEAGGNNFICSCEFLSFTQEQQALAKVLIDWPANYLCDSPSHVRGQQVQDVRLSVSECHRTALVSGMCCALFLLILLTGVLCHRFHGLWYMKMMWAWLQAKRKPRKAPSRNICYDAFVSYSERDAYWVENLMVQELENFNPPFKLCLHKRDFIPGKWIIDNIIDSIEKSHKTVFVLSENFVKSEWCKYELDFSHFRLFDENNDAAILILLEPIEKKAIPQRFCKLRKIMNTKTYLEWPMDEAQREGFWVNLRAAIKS
Toll-like receptor 4 (Homo sapiens), sequence (O00206 whole entry): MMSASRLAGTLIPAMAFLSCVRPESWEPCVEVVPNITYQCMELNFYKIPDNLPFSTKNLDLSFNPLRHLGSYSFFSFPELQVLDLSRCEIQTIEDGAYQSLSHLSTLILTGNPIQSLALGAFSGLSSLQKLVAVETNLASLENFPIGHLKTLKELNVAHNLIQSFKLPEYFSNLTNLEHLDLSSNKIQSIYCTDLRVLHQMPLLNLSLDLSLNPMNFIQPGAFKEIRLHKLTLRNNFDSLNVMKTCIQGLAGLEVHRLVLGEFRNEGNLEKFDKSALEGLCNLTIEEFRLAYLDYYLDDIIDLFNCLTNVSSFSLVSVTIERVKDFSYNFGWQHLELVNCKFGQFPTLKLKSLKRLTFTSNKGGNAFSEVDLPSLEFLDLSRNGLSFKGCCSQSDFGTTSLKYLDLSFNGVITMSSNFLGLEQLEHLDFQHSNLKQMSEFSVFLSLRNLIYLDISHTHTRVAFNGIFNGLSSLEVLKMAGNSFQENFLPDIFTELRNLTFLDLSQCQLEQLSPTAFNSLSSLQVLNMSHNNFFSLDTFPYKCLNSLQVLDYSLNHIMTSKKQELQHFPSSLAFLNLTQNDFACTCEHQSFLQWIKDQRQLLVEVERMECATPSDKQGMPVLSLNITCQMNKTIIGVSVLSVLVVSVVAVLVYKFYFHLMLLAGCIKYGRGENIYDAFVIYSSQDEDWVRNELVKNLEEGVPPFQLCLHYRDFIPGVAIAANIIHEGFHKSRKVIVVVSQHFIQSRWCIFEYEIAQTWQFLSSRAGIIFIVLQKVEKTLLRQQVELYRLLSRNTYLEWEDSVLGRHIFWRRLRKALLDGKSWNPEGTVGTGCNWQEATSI
Voltage-gated inwardly rectifying potassium channel KCNH2, sequence (Q12809 whole entry): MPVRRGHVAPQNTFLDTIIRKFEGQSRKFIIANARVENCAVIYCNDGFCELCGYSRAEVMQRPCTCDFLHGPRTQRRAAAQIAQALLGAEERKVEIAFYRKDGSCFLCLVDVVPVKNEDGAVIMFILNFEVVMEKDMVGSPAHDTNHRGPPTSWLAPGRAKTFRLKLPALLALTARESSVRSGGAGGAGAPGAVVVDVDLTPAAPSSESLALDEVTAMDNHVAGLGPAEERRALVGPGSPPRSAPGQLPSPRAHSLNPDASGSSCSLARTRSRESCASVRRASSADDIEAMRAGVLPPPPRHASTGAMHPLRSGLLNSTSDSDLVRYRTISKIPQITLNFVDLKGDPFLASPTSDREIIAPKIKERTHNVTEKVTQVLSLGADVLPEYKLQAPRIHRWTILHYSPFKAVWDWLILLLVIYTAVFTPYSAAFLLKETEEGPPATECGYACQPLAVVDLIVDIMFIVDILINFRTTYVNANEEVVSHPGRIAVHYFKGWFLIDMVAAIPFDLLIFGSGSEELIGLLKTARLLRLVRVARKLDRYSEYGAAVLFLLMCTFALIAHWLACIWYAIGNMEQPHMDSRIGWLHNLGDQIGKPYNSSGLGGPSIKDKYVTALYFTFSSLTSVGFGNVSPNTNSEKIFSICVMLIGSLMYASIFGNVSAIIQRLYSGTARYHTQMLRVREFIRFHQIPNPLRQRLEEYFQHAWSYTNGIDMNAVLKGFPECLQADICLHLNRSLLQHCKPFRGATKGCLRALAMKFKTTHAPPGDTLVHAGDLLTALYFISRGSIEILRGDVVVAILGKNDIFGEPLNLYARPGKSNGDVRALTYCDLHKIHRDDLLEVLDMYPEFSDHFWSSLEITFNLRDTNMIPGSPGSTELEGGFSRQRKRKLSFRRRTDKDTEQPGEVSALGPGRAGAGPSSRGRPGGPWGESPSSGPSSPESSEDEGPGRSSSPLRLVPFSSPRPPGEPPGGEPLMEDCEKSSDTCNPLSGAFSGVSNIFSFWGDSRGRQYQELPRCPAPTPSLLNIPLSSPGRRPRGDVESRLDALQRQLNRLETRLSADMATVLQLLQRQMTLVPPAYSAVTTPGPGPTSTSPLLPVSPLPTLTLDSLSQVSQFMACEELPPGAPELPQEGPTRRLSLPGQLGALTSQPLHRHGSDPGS

- Papp [1]: 0.95 ×10⁻⁶ cm/s
- EC50 (Blood [2]): 0.18 nM
- EC50 (Blood [3]): 0.13 nM
- IC50 [4]: > 30000 nM
- Papp A→B [5]: 1.4 ×10⁻⁶ cm/s
- EC50 (Blood [7]): 0.32 nM
- clearance [8]: 160 mL/min/kg
- EC [9]: > 5 µM
- EC50 (Blood [10]): 0.09 nM
- IC50 (in vitro): > 25000 nM
- EC [11]: > 5 µM
- EC [12]: > 5 µM
- half-life [13]: 16 min
- EC50 (Blood [14]): 0.11 nM
- EC50 (Blood [15]): 3.4 nM
- AUC(0-t) at 2 h [16]: 0.183 µM·h
- EC [17]: > 5 µM
- EC50 (Blood [18]): 0.13 nM
Structure (SMILES): CCC[C@@H](CCO)Nc1nc(N)nc2cnn(Cc3ccc(CNC4CCOCC4)cc3OC)c12
- Activity (Mus musculus): inactive
- IC50 [6]: ≥ 45000 nM
- Activity (CT26): Dose-Dependent Effect
- EC (Jurkat): > 25 µM
